# Results: US10844044B2 (Vanderbilt University, priority 2018, dated 2020)
# Tested on: MV4:11 human cancer cell lines
# Assay: Anti-proliferative activity, CellTiter-Glo viability assay, 7 day protocol
# Format: cell-based
# Settings: Homo sapiens, 168 h, MV4:11 cells, 7 day incubation, read-out: GI50 on cellular proliferation of MV4:11 human cancer cell lines
# Procedure: Viability assays are performed by dispensing […] into each well of an opaque 384-well plate and adding compounds at the indicated concentrations in a final volume of 32 μL and a final concentration of DMSO of 0.1% for all samples. After a set incubation period, 7 day protocol, the viability of cells in each well is assessed using the CellTiter-Glo assay (Promega), read on a GloMax 96 Microplane Luminometer (Promega). Serial dilutions of each cell type are included in all assays to generate standard curves and determine assay measurements are taken within the dynamic range of the instrument. GI50 values are calculated based on three biological replicates, each with three technical replicates. Data are expressed as mean plus/minus S.E.M.
row,GI50 [nM],SMILES
1,460,Cc1cc(CNC(=O)c2cc(Cn3ccn(C)c3=N)cc(-c3c(C)cc(F)cc3C)c2)ccc1Cl [Example 59]

# Same assay, conditions: Homo sapiens, MV4-11, 168 h, MV4:11 cells, 7 day incubation, read-out: GI50 on cellular proliferation of MV4:11 human cancer cell lines
row,SMILES,GI50 [nM]
1,"COc1cnccc1-c1cc(Cn2ccn(C)c2=N)cc(C(=O)NCc2ccc(Cl)c(Cl)c2)c1 [Example 23, N-(3,4-Dichlorobenzyl)-3-((2-imino-3-methyl-2,3-dihydro-1H-imidazol-1-yl)methyl)-5-(3-methoxypyridin-4-yl)benzamide]",6200
2,"Cn1nccc1-c1cc(Cn2ccn(C)c2=N)cc(C(=O)NCc2ccc(Cl)c(Cl)c2)c1 [Example 26, N-(3,4-Dichlorobenzyl)-3-((2-imino-3-methyl-2,3-dihydro-1H-imidazol-1-yl)methyl)-5-(1-methyl-1H-pyrazol-5-yl)benzamide]",790
3,"Cc1cc([C@@H](C)NC(=O)c2cc(Cn3ccn(C)c3=N)cc(-c3ccc(F)cc3C)c2)ccc1F [Example 29, (R)-4′-Fluoro-N-(1-(4-fluoro-3-methylphenyl)ethyl)-5-((2-imino-3-methyl-2,3-dihydro-imidazol-1-yl)methyl)-2′-methyl-[1,1′-biphenyl]-3-carboxamide]",780
4,"Cc1cc([C@H](C)NC(=O)c2cc(Cn3ccn(C)c3=N)cc(-c3ccc(F)cc3C)c2)ccc1F [Example 30, (S)-4′-Fluoro-N-(1-(4-fluoro-3-methylphenyl)ethyl)-5-((2-imino-3-methyl-2,3-dihydro-1H-imidazol-1-yl)methyl)-2′-methyl-[1,1′-biphenyl]-3-carboxamide]",100
5,"Cc1cc(F)ccc1-c1cc(Cn2ccn(C)c2=N)cc(C(=O)N[C@@H](C)c2ccc(F)c(C(F)(F)F)c2)c1 [Example 31, (S)-4′-Fluoro-N-(1-(4-fluoro-3-(trifluoromethyl)phenyl)ethyl)-5-((2-imino-3-methyl-2,3-dihydro-1H-imidazol-1-yl)methyl)-2′-methyl-[1,1′-biphenyl]-3-carboxamide]",300
6,"Cc1cc(F)ccc1-c1cc(Cn2ccn(C)c2=N)cc(C(=O)N[C@H](C)c2ccc(F)c(C(F)(F)F)c2)c1 [Example 32, (R)-4′-Fluoro-N-(1-(4-fluoro-3-(trifluoromethyl)phenyl)ethyl)-5-((2-imino-3-methyl-2,3-dihydro-1H-imidazol-1-yl)methyl)-2′-methyl-[1,1′-biphenyl]-3-carboxamide]",1500
7,"Cc1cc([C@H](NC(=O)c2cc(Cn3ccn(C)c3=N)cc(-c3ccc(F)cc3C)c2)C(F)(F)F)ccc1F [Example 45, (S)-4′-fluoro-5-((2-imino-3-methyl-2,3-dihydro-1H-imidazol-1-yl)methyl)-2′-methyl-N-(2,2,2-trifluoro-1-(4-fluor-3-methylphenyl)ethyl)-[1,1′-biphenyl]-3-carboxamide]",1800
8,"Cc1cc([C@@H](NC(=O)c2cc(Cn3ccn(C)c3=N)cc(-c3ccc(F)cc3C)c2)C2CC2)ccc1F [Example 54, (S)—N-(Cyclopropyl(4-fluoro-3-methylphenyl)methyl)-4′-fluoro-5-((2-imino-3-methyl-2,3-dihydro-1H-imidazol-1-yl)methyl)-2′-methyl-[1,1′-biphenyl]-3-carboxamide]",< 100
9,"Cc1cc(CNC(=O)c2cc(Cn3ccn(C)c3=N)cc(-c3ncc(F)cc3C)c2)ccc1Cl [Example 70, N-(4-Chloro-3-methylbenzyl)-3-(5-fluoro-3-methylpyridin-2-yl)-5-((2-imino-3-methyl-2,3-dihydro-1H-imidazol-1-yl)methyl)benzamide]",2400
10,"Cc1cc([C@@H](NC(=O)c2cc(Cn3ccn(C)c3=N)cc(-c3ncc(F)cc3C(F)(F)F)c2)C2CC2)ccc1F [Example 72, (S)—N-(Cyclopropyl(4-fluoro-3-methylphenyl)methyl)-3-(5-fluoro-3-(trifluoromethyl)pyridin-2-yl)-5-((2-imino-3-methyl-2,3-dihydro-1H-imidazol-1-yl)methyl)benzamide]",180
11,"Cc1cc([C@@H](NC(=O)c2cc(Cn3ccn(C)c3=N)cc(-c3ccc(F)cc3OC(F)F)c2)C2CC2)ccc1F [Example 73, (S)—N-(cyclopropyl(4-fluoro-3-methylphenyl)methyl)-2′-(difluoromethoxy)-4′-fluoro-5-((2-imino-3-methyl-2,3-dihydro-1-imidazol-1-yl)methyl)-[1,1′-biphenyl]-3-carboxamide]",1800
12,"COc1cc(OC)cc(C(NC(=O)c2cc(Cn3ccn(C)c3=N)cc(-c3ncc(F)cc3C(F)(F)F)c2)C2CC2)c1 (centres unmarked) [Example 74, N-(Cyclopropyl(3,5-dimethoxyphenyl)methyl)-3-(5-fluoro-3-(trifluoromethyl)pyridin-2-yl)-5-((2-imino-3-methyl-2,3-dihydro-1H-imidazol-1-yl)methyl)benzamide]",4500
13,"Cc1ccnc(C(NC(=O)c2cc(Cn3ccn(C)c3=N)cc(-c3ncc(F)cc3C(F)(F)F)c2)C2CC2)c1 (centres unmarked) [Example 75, N-(Cyclopropyl(4-methylpyridin-2-yl)methyl)-3-(5-fluoro-3-(trifluoromethyl)pyridin-2-yl)-5-((2-imino-3-methyl-2,3-dihydro-1H-imidazol-1-yl)methyl)benzamide]",12000
14,"Cc1cc(CNC(=O)c2cc(Cn3ccn(C)c3=N)cc(-c3cccnc3C(F)(F)F)c2)ccc1Cl [Example 76, N-(4-Chloro-3-methylbenzyl)-3-((2-imin-3-methyl-2,3-dihydro-1H-imidazol-1-yl)methyl)-5-(2-(trifluoromethyl)pyridin-3-yl)benzamide]",260
15,"Cc1ccnc(C(NC(=O)c2cc(Cn3ccn(C)c3=N)cc(-c3cccnc3C(F)(F)F)c2)C2CC2)c1 (centres unmarked) [Example 77, N-(Cyclopropyl(4-methylpyridin-2-yl)methyl)-3-((2-imino-3-methyl-2,3-dihydro-1H-imidazol-1-yl)methyl)-5-(2-(trifluoromethyl)pyridin-3-yl)benzamide]",1200
16,COc1ccnc([C@@H](NC(=O)c2cc(Cn3ccn(C)c3=N)cc(-c3ccc(F)cc3C)c2)C2CC2)c1 [Example 97],250

# Now from value to molecule:
row,GI50 [nM],SMILES
1,2160,"Cc1cc([C@@H](NC(=O)c2cc(Cn3ccn(C)c3=N)cc(-c3ccnn3C(C)C)c2)C2CC2)ccc1F [Example 102, (S)—N-(Cyclopropyl(4-fluoro-3-methylphenyl)methyl)-3-((2-imino-3-methyl-2,3-dihydro-1H-imidazol-1-yl)methyl)-5-(1-isopropyl-1H-pyrazol-5-yl)benzamide]"
2,< 100,Cc1cc([C@@H](NC(=O)c2cc(Cn3ccn(C)c3=N)cc(-c3ccc(F)cc3C(F)(F)F)c2F)C2CC2)ccc1F [Example 109]
3,320,Cc1cc([C@@H](NC(=O)c2cc(Cn3ccn(C)c3=N)cc(OCC3CC3)c2)C2CC2)ccc1F [Example 175]
4,640,"Cc1cc([C@H](C)NC(=O)c2cc(Cn3ccoc3=N)cc(-c3ccc(F)cc3C)c2)ccc1F [Example 230, (S)-4′-Fluoro-N-(1-(4-fluoro-3-methylphenyl)ethyl)-5-((2-iminooxazol-3(2H)-yl)methyl)-2′-methyl-[1,1′-biphenyl]-3-carboxamide]"
5,870,"Cc1cc([C@H](NC(=O)c2cc(Cn3ccoc3=N)cc(-c3ccc(F)cc3C)c2)C(F)(F)F)ccc1F [Example 231, (S)-4′-Fluoro-5-((2-iminooxazol-3(2H)-yl)methyl)-2′-methyl-N-(2,2,2-trifluoro-1-(4-fluoro-3-methylphenyl)ethyl)-[1,1′-biphenyl]-3-carboxamide]"
6,210,"Cc1cc([C@@H](NC(=O)c2cc(Cn3ccoc3=N)cc(-c3ccc(F)cc3C)c2)C2CC2)ccc1F [Example 232, (S)—N-(Cyclopropyl(4-fluoro-3-methylphenyl)methyl)-4′-fluoro-5-((2-iminooxazol-3(2H)-yl)methyl)-2′-methyl-[1,1′-biphenyl]-3-carboxamide]"
7,1100,"Cc1cc(F)ccc1-c1cc(Cn2ccoc2=N)cc(C(=O)N[C@@H](C)c2ccc(F)c(C(F)(F)F)c2)c1 [Example 233, (S)-4′-Fluoro-N-(1-(4-fluoro-3-(trifluoromethyl)phenyl)ethyl)-5-((2-iminooxazol-3(2H)-yl)methyl)-2′-methyl-[1,1′-biphenyl]-3-carboxamide]"
8,870,"Cc1cc([C@H](C)NC(=O)c2cc(Cn3ccoc3=N)cc(-c3ccc(F)cc3C)c2)ccc1Cl [Example 234, (S)—N-(1-(4-Chloro-3-methylphenyl)ethyl)-4′-fluoro-5-((2-iminooxazol-3(2H)-yl)methyl)-2′-methyl-[1,1′-biphenyl]-3-carboxamide]"
9,5300,"Cc1ccnc(C(NC(=O)c2cc(Cn3ccoc3=N)cc(-c3ncc(F)cc3C)c2)C2CC2)c1 (centres unmarked) [Example 239, N-(Cyclopropyl(4-methylpyridin-2-yl)methyl)-3-(5-fluoro-3-methylpyridin-2-yl)-5-((2-iminooxazol-3(2H)-yl)methyl)benzamide]"
10,12000,"Cc1cc([C@@H](NC(=O)c2cc(Cn3ccoc3=N)cc(-c3ncc(F)cc3C(F)(F)F)c2)C2CC2)ccc1F [Example 241, (S)—N-(Cyclopropyl(4-fluoro-3-methylphenyl)methyl)-3-(5-fluoro-3-(trifluoromethyl)pyridin-2-yl)-5-((2-iminooxazol-3(2H)-yl)methyl)benzamide]"
11,120,"Cc1cc([C@@H](NC(=O)c2cc(Cn3ccoc3=N)cc(-c3ccc(F)cc3OC(F)F)c2)C2CC2)ccc1F [Example 242, (S)—N-(Cyclopropyl(4-fluoro-3-methylphenyl)methyl)-2′-(difluoromethoxy)-4′-fluoro-5-((2-iminooxazol-3(2 h)-yl)methyl)-[1,1′-biphenyl]-3-carboxamide]"
12,< 100,"Cc1cc([C@@H](NC(=O)c2cc(Cn3ccoc3=N)cc(-c3cccnc3C(F)(F)F)c2)C2CC2)ccc1F [Example 243, (S)—N-(Cyclopropyl(4-fluoro-3-methylphenyl)methyl)-3-((2-iminooxazol-3(2H)-yl)methyl)-5-(2-(trifluoromethyl)pyridin-3-yl)benzamide]"
